Patent publication US11364231B2, “Methods of treating radiation induced gastrointestinal syndrome (RIGS) and related disease states using YEL002/BCN057” (priority 2017, dated 2022)
“Also recorded” adds a separate entry of the source.

Legend:
NCI 60 cancer cell lines = test: NCI 60 cancer cell line screen; assay type: cell-based; details: BCN057 10 uM, 48 hours, sulforhodamine B assay
Procedure: (§1) BCN057 was first examined in the National Cancer Institute (NCI) 60 cancer cell line platform. Several of these cell lines are known to be positive for dysregulation of the Wnt/b-catenin signaling pathway. […] Next we examined the effect of BCN057 in human colonic tumor derived organoids exposed to irradiation.
100 μL of each cell preparation was tested in accordance with its particular type and density, ranging from 5000-40,000 cells per well in a 96-well microtiter plate, corresponding to their own growth rate. BCN057 was evaluated 10 uM and incubation for 48 hours in a 5% CO2 atmosphere with 100% humidity. Proliferation was assayed using the sulforhodamine B assay with a plate reader to read the optical densities.

[1] = Solubility in aqueous formulations; assay type: physicochemical
Procedure: In another embodiment formulation for intravenous, subcutaneous and oral delivery of therapeutic levels of Yel002/BCN057 were developed comprising 30 wt % Captisol (SBE-beta-CD) and 100 mM MSA at pH 4.1 or higher (adjusted with 1.0 N NaOH).

[2] = system: nuclear β-catenin in crypt epithelial cells; test: β-Catenin immunohistochemistry of mouse jejunum; assay type: in vivo, mice; details: BCN057 at 24 hrs post AIR vs irradiated untreated animals
Procedure: The effect of BCN057 was analyzed in crypt epithelial β-catenin activation. […] Nuclear β-catenin positive cells were primarily observed in crypt bottom which is also location for ISCs indicating activation of WNT-β-catenin signaling in ISCs.
β-Catenin immunohistochemistry was performed in paraffin-embedded sections of mouse jejunum (56). Before immunostaining antigen retrieval was performed by heating slides in […] at 100° C. for 20 min in a microwave oven at 500 W using antigen retrieval solution (10 mM Tris and 1 mM EDTA, pH 9.0). Non-specific antibody binding was blocked for 20 min. by incubation with 0.05% w/v BSA in PBS. Tissue was stained using the anti-β-catenin antibody (1:100 dilution; BD Transduction Laboratories, Franklin Lakes, N.J.; #610154) at room temperature for 2 hr followed by staining with horseradish peroxidase-conjugated Anti-Mouse Antibody (Dako, Denmark) at room temperature for 1 hr. Peroxidase activity was detected by adding DAB substrate. Nucleus was counter-stained with haematoxylin (blue). β-Catenin-positive nucleus (stained dark brown) was calculated from 15 crypts per field, 5 fields per mice.

[3] = system: HEK293 cells having TCF/LEF luciferase reporter construct; test: TCF/LEF (Topflash) reporter assay; assay type: cell-based, human; details: graded doses of BCN057 vs vehicle control, 24 hr
Procedure: To determine the canonical WNT activity of BCN057 HEK293 cells (Signosis, Santa Clara, Calif.) having TCF/LEF luciferase reporter construct were treated with BCN057 or vehicle control or PBS. LiCl (10 mM) treatment was used as positive control for luciferase activity. Luciferase activity was determined 24 hr after using Dual-Luciferase Reporter Assay System (Promega) as per manufacturer's protocol. HEK293 cells having FOPFLASH construct (mutated TCF/LEF-binding site) were used as negative control. HEK293 (human embryonic kidney) cell line was routinely characterized in the lab based on morphology and gene-expression patterns. Cells were confirmed to be free of mycoplasma contamination.

[4] = system: human malignant colonic organoids; test: Human colon tumor derived organoids with or without irradiation; assay type: cell-based
Text: FIG. 16. […] Organoids derived from surgical specimen of colon tumor were exposed to irradiation (8Gy) and then treated with BCN057. Note loss of budding crypt like structure in Irradiated organoids treated with BCN057.
FIG. 17. […] Budding crypt to total crypt ratio reduced in a dose dependent manner following irradiation (2-8 Gy).
as §1

[5] = system: irradiated intestinal epithelium (jejunum); test: Jejunum histology and crypt proliferation after AIR; assay type: in vivo
Text: Since radiation doses>8 Gy induces cell cycle arrest and apoptosis of the crypt epithelial cells within day 1 post-radiation, resulting in a decrease in regenerating crypt colonies by day 3.5 and ultimately villi denudation by day 7 post-radiation exposure, animals were sacrificed when moribund or at 3.5 days after AIR for time course experiments and intestines were collected for histology. The intestine of each animal was dissected, washed in PBS to remove intestinal contents and the jejunum was fixed in 10% neutral-buffered formalin before paraffin embedding. Tissue was routinely processed and cut into 5 μm sections for haematoxylin and eosin and immunohistochemical staining. All haemotoxylin and eosin (HE) (Fisher Scientific, Pittsburgh, Pa.) staining was performed at the Pathology Core Facility in the KUMC Cancer Center.
To visualize villous cell proliferation mid-jejunum was collected for paraffin embedding and Ki67 immunohistochemistry. Tissue sections were routinely deparaffinized and rehydrated through graded alcohols and incubated overnight at room temperature with a monoclonal anti Ki67 antibody. Nuclear staining was visualized using streptavidin-peroxidase and diaminobenzidine (DAB) and samples were lightly counterstained with haematoxylin. […] The proliferation rate was calculated as the percentage of KI67-positive cells over the total number of cells in each crypt. A total of 60 crypts were examined per animal.
Crypt depth was independently and objectively analyzed and quantitated in a blind manner from coded digital photographs of crypts from HE-stained slides using ImageJ 1.37 software to measure the height in pixels from the bottom of the crypt to the crypt villus junction. Villi length was determined by measuring the length from the crypt villus junction to villous tip. This measurement in pixels was converted to length (in μm) by dividing with the following a conversion factor (1.46 pixels μm-1).

[6] = system: human colonic organoid developed from non-malignant tissue; test: Irradiated human colonic organoids from non-malignant tissue; assay type: cell-based
Procedure: FIG. 13. […] Note presence of budding crypt like structure in BCN057 treated group.
To examine the effect of BCN057 on human intestinal, epithelial tissue surgical specimen collected from normal colon at least 10 cm apart from malignant site was used to develop ex vivo crypt organoid. At a dose level of 8 Gy all the budding crypts have been disappeared in the organoids. […] The effect of BCN057 on mRNA level of β-catenin target genes in organoids was also evaluated.

[7] = jejunum, BCN057 at 24 hrs after AIR vs irradiated control

COc1ccc2cc(-c3nc4ccc(C)cn4c3NCc3ccco3)c(=O)[nH]c2c1 [BCN057, 3-(3((furan-2-ylmethyl)ammo)-6-methylimidazo[1,2-a]pyridine-2-yl)-6-methoxyquinolin-2(1H)-one]
proliferative response (NCI 60 cancer cell lines): None of these cells showed any proliferative response | solubility ([1]; 30 wt % Captisol (SBE-beta-CD) and 100 mM MSA, at up to pH 4.1 or higher): excellent solubility | solubility in aqueous solution ([1]; physiologically compatible pHs, 100 mM MSA/10% PVP, 100 mM MSA/2% benzyl alcohol/2% NMP, 100 mM MSA/10% ethanol/1% Poloxamer 188): solubalized | nuclear β-catenin positive cells [2]: significant increase; also recorded: more nuclear β-catenin staining | Luciferase activity (WNT activity) [3]: significant increase; also recorded: higher Luciferase activity; also recorded: strong WNT activity | rescue of malignant organoids from radiation toxicity ([4]; 8Gy (2-8 Gy in FIG. 17), BCN057 10 uM at 1 hr post radiation): did not recue organoids from radiation toxicity; also recorded: did not rescue; also recorded: could not reduce the radiation toxicity | growth and proliferation of malignant organoid ([4]; un-irradiated organoids treated with BCN057): inhibitory effect | number of crypt in jejunum ([5]; BCN057 at 24 hrs after AIR vs irradiated control): increase in number of crypts | crypt villus structure / epithelium (HE staining) ([5]; jejunum, 3.5 day after AIR, BCN057 at 24 hrs post AIR): normal crypt villus structure; also recorded: restitution of epithelium | % of Ki67 positive crypt cells [5, 7]: increase in crypt cell proliferation | Crypt Depth villi length [5, 7]: preserved villous length; also recorded: increase | budding crypts / organoid structure ([6]; 8Gy, BCN057 (20 ug/ml) at 1 hr post irradiation, 72 hrs): complete restitution of organoid structure; also recorded: rescued the organoids from radiation toxicity | Ki67 staining in budding crypt like structure ([6]; 8Gy, BCN057 treated organoids): positive staining | ratio of budding crypt to total number of crypts ([6]; irradiated organoids 4Gy and 8Gy, vs untreated irradiated control): increased
